Key:
Type in all cases: in vivo
[1] = system: Alopecurus myosuroides (ALOMY); experiment: Post-emergence herbicidal glasshouse test; conditions: post-emergence (sprayed after 8 days cultivation), evaluated after 13 days, 100=total damage to plant, 0=no damage to plant; for POST Application ALOMY, damage to plant: 1000 g/ha; for pest or weed control at 1000 g/ha: Alopecurus myosuroides, 312 h, read-out: POST Application ALOMY, damage to plant
Protocol: (§1) Seeds of a variety of test species were sown in standard soil in pots (Alopecurus myosuroides (ALOMY), Setaria faberi (SETFA), Echinochloa crus-galli (ECHCG), Solanum nigrum (SOLNI) and Amaranthus retoflexus (AMARE)). After cultivation for one day (pre-emergence) or after 8 days cultivation (post-emergence) under controlled conditions in a glasshouse (at 24/16° C., day/night; 14 hours light; 65% humidity), the plants were sprayed with an aqueous spray solution derived from the formulation of the technical active ingredient in acetone/water (50:50) solution containing 0.5% Tween 20 (polyoxyethelyene sorbitan monolaurate, CAS RN 9005-64-5). Compounds were applied at 1000 g/ha. The test plants were then grown in a glasshouse under controlled conditions in a glasshouse (at 24/16° C., day/night; 14 hours light; 65% humidity) and watered twice daily. After 13 days for pre and post-emergence, the test was evaluated (100=total damage to plant; 0=no damage to plant).

[2] = system: Amaranthus retoflexus (AMARE); experiment: Post-emergence herbicidal glasshouse test; conditions: post-emergence (sprayed after 8 days cultivation), evaluated after 13 days, 100=total damage to plant, 0=no damage to plant; for POST Application AMARE, damage to plant: 1000 g/ha; for pest or weed control at 1000 g/ha: Amaranthus retroflexus, 312 h, read-out: POST Application AMARE, damage to plant
Protocol: as §1

[3] = system: Echinochloa crus-galli (ECHCG); experiment: Post-emergence herbicidal glasshouse test; conditions: post-emergence (sprayed after 8 days cultivation), evaluated after 13 days, 100=total damage to plant, 0=no damage to plant; for POST Application ECHCG, damage to plant: 1000 g/ha; for pest or weed control at 1000 g/ha: Echinochloa crus-galli, 312 h, read-out: POST Application ECHCG, damage to plant
Protocol: as §1

[4] = system: Setaria faberi (SETFA); experiment: Post-emergence herbicidal glasshouse test; conditions: post-emergence (sprayed after 8 days cultivation), evaluated after 13 days, 100=total damage to plant, 0=no damage to plant; for POST Application SETFA, damage to plant: 1000 g/ha; for pest or weed control at 1000 g/ha: Setaria faberi, 312 h, read-out: POST Application SETFA, damage to plant
Protocol: as §1

[5] = system: Solanum nigrum (SOLNI); experiment: Post-emergence herbicidal glasshouse test; conditions: post-emergence (sprayed after 8 days cultivation), evaluated after 13 days, 100=total damage to plant, 0=no damage to plant; for POST Application SOLNI, damage to plant: 1000 g/ha; for pest or weed control at 1000 g/ha: Solanum nigrum, 312 h, read-out: POST Application SOLNI, damage to plant
Protocol: as §1

[6] = system: Alopecurus myosuroides (ALOMY); experiment: Pre-emergence herbicidal glasshouse test; conditions: pre-emergence (sprayed after one day cultivation), evaluated after 13 days, 100=total damage to plant, 0=no damage to plant; for PRE Application ALOMY, damage to plant: 1000 g/ha; for pest or weed control at 1000 g/ha: Alopecurus myosuroides, 312 h, read-out: PRE Application ALOMY, damage to plant
Protocol: as §1

[7] = system: Amaranthus retoflexus (AMARE); experiment: Pre-emergence herbicidal glasshouse test; conditions: pre-emergence (sprayed after one day cultivation), evaluated after 13 days, 100=total damage to plant, 0=no damage to plant; for PRE Application AMARE, damage to plant: 1000 g/ha; for pest or weed control at 1000 g/ha: Amaranthus retroflexus, 312 h, read-out: PRE Application AMARE, damage to plant
Protocol: as §1

[8] = system: Echinochloa crus-galli (ECHCG); experiment: Pre-emergence herbicidal glasshouse test; conditions: pre-emergence (sprayed after one day cultivation), evaluated after 13 days, 100=total damage to plant, 0=no damage to plant; for PRE Application ECHCG, damage to plant: 1000 g/ha; for pest or weed control at 1000 g/ha: Echinochloa crus-galli, 312 h, read-out: PRE Application ECHCG, damage to plant
Protocol: as §1

[9] = system: Setaria faberi (SETFA); experiment: Pre-emergence herbicidal glasshouse test; conditions: pre-emergence (sprayed after one day cultivation), evaluated after 13 days, 100=total damage to plant, 0=no damage to plant; for PRE Application SETFA, damage to plant: 1000 g/ha; for pest or weed control at 1000 g/ha: Setaria faberi, 312 h, read-out: PRE Application SETFA, damage to plant
Protocol: as §1

[10] = system: Solanum nigrum (SOLNI); experiment: Pre-emergence herbicidal glasshouse test; conditions: pre-emergence (sprayed after one day cultivation), evaluated after 13 days, 100=total damage to plant, 0=no damage to plant; for PRE Application SOLNI, damage to plant: 1000 g/ha; for pest or weed control at 1000 g/ha: Solanum nigrum, 312 h, read-out: PRE Application SOLNI, damage to plant
Protocol: as §1

## COC(C)c1ccc2cc(C(=O)C3C(=O)CCCC3=O)c(C(F)(F)F)nc2n1 (centres unmarked) [Compound 1.63, 2-[7-(1-methoxyethyl)-2-trifluoromethyl-[1,8]-naphthyridine-3-carbony]-cyclohexane-1,3-dione]
[1]
  POST Application ALOMY, damage to plant: 90
[2]
  POST Application AMARE, damage to plant: 100
[3]
  POST Application ECHCG, damage to plant: 90
[4]
  POST Application SETFA, damage to plant: 90
[5]
  POST Application SOLNI, damage to plant: 80
[6]
  PRE Application ALOMY, damage to plant: 70
[7]
  PRE Application AMARE, damage to plant: 100
[8]
  PRE Application ECHCG, damage to plant: 100
[9]
  PRE Application SETFA, damage to plant: 100
[10]
  PRE Application SOLNI, damage to plant: 100

## CCc1nc2nc(C(F)(F)F)c(C(=O)C3C(=O)CCCC3=O)cc2cc1F [Compound 1.67, 2-[7-ethyl-6-fluoro-2-trifluoromethyl-[1,8]-naphthyridine-3-carbony]-cyclohexane-1,3-dione]
[1]
  POST Application ALOMY, damage to plant: 90
[2]
  POST Application AMARE, damage to plant: 80
[3]
  POST Application ECHCG, damage to plant: 90
[4]
  POST Application SETFA, damage to plant: 90
[5]
  POST Application SOLNI, damage to plant: 100
[6]
  PRE Application ALOMY, damage to plant: 90
[7]
  PRE Application AMARE, damage to plant: 100
[8]
  PRE Application ECHCG, damage to plant: 100
[9]
  PRE Application SETFA, damage to plant: 100
[10]
  PRE Application SOLNI, damage to plant: 100

## O=C1CCCC(=O)C1C(=O)c1cc2cc(F)c(CCF)nc2nc1C(F)(F)F [Compound 1.69]
[1]
  POST Application ALOMY, damage to plant: 60
[2]
  POST Application AMARE, damage to plant: 90
[3]
  POST Application ECHCG, damage to plant: 80
[4]
  POST Application SETFA, damage to plant: 80
[5]
  POST Application SOLNI, damage to plant: 80
[6]
  PRE Application ALOMY, damage to plant: 60
[7]
  PRE Application AMARE, damage to plant: 20
[8]
  PRE Application ECHCG, damage to plant: 100
[9]
  PRE Application SETFA, damage to plant: 90
[10]
  PRE Application SOLNI, damage to plant: 100

## CC(C)Cc1nc2nc(C(F)(F)F)c(C(=O)C3C(=O)CCCC3=O)cc2cc1F [Compound 1.70, 2-[6-fluoro-7-(2-methylpropyl)-2-trifluoromethyl-[1,8]-naphthyridine-3-carbony]-cyclohexane-1,3-dione]
[1]
  POST Application ALOMY, damage to plant: 90
[2]
  POST Application AMARE, damage to plant: 90
[3]
  POST Application ECHCG, damage to plant: 90
[4]
  POST Application SETFA, damage to plant: 90
[5]
  POST Application SOLNI, damage to plant: 80
[6]
  PRE Application ALOMY, damage to plant: 90
[7]
  PRE Application AMARE, damage to plant: 40
[8]
  PRE Application ECHCG, damage to plant: 100
[9]
  PRE Application SETFA, damage to plant: 100
[10]
  PRE Application SOLNI, damage to plant: 100

## O=C1CCCC(=O)C1C(=O)c1cc2cc(F)c(-c3ccsc3)nc2nc1C(F)(F)F [Compound 1.71]
[1]
  POST Application ALOMY, damage to plant: 30
[2]
  POST Application AMARE, damage to plant: 100
[3]
  POST Application ECHCG, damage to plant: 80
[4]
  POST Application SETFA, damage to plant: 80
[5]
  POST Application SOLNI, damage to plant: 70
[6]
  PRE Application ALOMY, damage to plant: 10
[7]
  PRE Application AMARE, damage to plant: 0
[8]
  PRE Application ECHCG, damage to plant: 90
[9]
  PRE Application SETFA, damage to plant: 70
[10]
  PRE Application SOLNI, damage to plant: 70

## C/C=C/c1nc2nc(C(F)(F)F)c(C(=O)C3C(=O)CCCC3=O)cc2cc1F [Compound 1.72, 2-(6-fluoro-7-[(E)(prop-1-enyl)]-2-trifluoromethyl-[1,8]-naphthyridine-3-carbony)-cyclohexane-1,3-dione]
[1]
  POST Application ALOMY, damage to plant: 50
[2]
  POST Application AMARE, damage to plant: 70
[3]
  POST Application ECHCG, damage to plant: 70
[4]
  POST Application SETFA, damage to plant: 80
[5]
  POST Application SOLNI, damage to plant: 60
[6]
  PRE Application ALOMY, damage to plant: 30
[7]
  PRE Application AMARE, damage to plant: 60
[8]
  PRE Application ECHCG, damage to plant: 90
[9]
  PRE Application SETFA, damage to plant: 90
[10]
  PRE Application SOLNI, damage to plant: 90

## CCN(CC)c1nc2nc(C(F)(F)F)c(C(=O)C3C(=O)CCCC3=O)cc2cc1F [Compound 1.73, 2-[7-(diethylamino)-6-fluoro-2-trifluoromethyl-[1,8]-naphthyridine-3-carbony]-cyclohexane-1,3-dione]
[1]
  pest or weed control at 1000 g/ha: 60%
[2]
  pest or weed control at 1000 g/ha: 70%
[3]
  pest or weed control at 1000 g/ha: 80%
[4]
  pest or weed control at 1000 g/ha: 80%
[5]
  pest or weed control at 1000 g/ha: 70%
[6]
  pest or weed control at 1000 g/ha: 60%
[7]
  pest or weed control at 1000 g/ha: 70%
[8]
  pest or weed control at 1000 g/ha: 100%
[9]
  pest or weed control at 1000 g/ha: 100%
[10]
  pest or weed control at 1000 g/ha: 100%

## COCc1nc2ncc(F)cc2cc1C(=O)C1C(=O)CCCC1=O [Compound 1.74, 2-[6-fluoro-2-methoxymethyl-[1,8]-naphthyridine-3-carbony]-cyclohexane-1,3-dione]
[1]
  POST Application ALOMY, damage to plant: 40
[2]
  POST Application AMARE, damage to plant: 90
[3]
  POST Application ECHCG, damage to plant: 80
[4]
  POST Application SETFA, damage to plant: 80
[5]
  POST Application SOLNI, damage to plant: 80
[6]
  PRE Application ALOMY, damage to plant: 70
[7]
  PRE Application AMARE, damage to plant: 100
[8]
  PRE Application ECHCG, damage to plant: 100
[9]
  PRE Application SETFA, damage to plant: 100
[10]
  PRE Application SOLNI, damage to plant: 100

## CC(C)c1nc2nc(C(F)(F)F)c(C(=O)C3C(=O)CCCC3=O)cc2cc1F [Compound 1.75, 2-[6-fluoro-7-methylethyl-2-trifluoromethyl-[1,8]-naphthyridine-3-carbony]-cyclohexane-1,3-dione]
[1]
  pest or weed control at 1000 g/ha: 80%
[2]
  pest or weed control at 1000 g/ha: 80%
[3]
  pest or weed control at 1000 g/ha: 90%
[4]
  pest or weed control at 1000 g/ha: 90%
[5]
  pest or weed control at 1000 g/ha: 90%
[6]
  pest or weed control at 1000 g/ha: 80%
[7]
  pest or weed control at 1000 g/ha: 80%
[8]
  pest or weed control at 1000 g/ha: 90%
[9]
  pest or weed control at 1000 g/ha: 90%
[10]
  pest or weed control at 1000 g/ha: 90%

## Cc1nc2nc(C(F)F)c(C(=O)C3C(=O)CCCC3=O)cc2cc1F [Compound 1.78, 2-(2-difluoromethyl-6-fluoro-7-methyl-[1,8]-naphthyridine-3-carbonyl)-cyclohexane-1,3-dione]
[1]
  pest or weed control at 1000 g/ha: 60%
[2]
  pest or weed control at 1000 g/ha: 100%
[3]
  pest or weed control at 1000 g/ha: 90%
[4]
  pest or weed control at 1000 g/ha: 90%
[5]
  pest or weed control at 1000 g/ha: 80%
[6]
  pest or weed control at 1000 g/ha: 80%
[7]
  pest or weed control at 1000 g/ha: 100%
[8]
  pest or weed control at 1000 g/ha: 100%
[9]
  pest or weed control at 1000 g/ha: 100%
[10]
  pest or weed control at 1000 g/ha: 100%

## COCCN(C)c1nc2nc(C(F)(F)F)c(C(=O)C3C(=O)CCCC3=O)cc2cc1F [Compound 1.80, 2-[6-fluoro-7-(2-methoxyethylmethylamino)-2-trifluoromethyl-[1,8]-naphthyridine-3-carbony]-cyclohexane-1,3-dione]
[1]
  POST Application ALOMY, damage to plant: 80
[2]
  POST Application AMARE, damage to plant: 80
[3]
  POST Application ECHCG, damage to plant: 90
[4]
  POST Application SETFA, damage to plant: 80
[5]
  POST Application SOLNI, damage to plant: 80
[6]
  PRE Application ALOMY, damage to plant: 80
[7]
  PRE Application AMARE, damage to plant: 100
[8]
  PRE Application ECHCG, damage to plant: 100
[9]
  PRE Application SETFA, damage to plant: 100
[10]
  PRE Application SOLNI, damage to plant: 100

Reference: patent publication US8461083B2, “Herbicidal compounds” (Syngenta Limited, priority 2008, dated 2013)
